Measured values published in ChEMBL document CHEMBL1201862, “PubChem BioAssay data set” (2004).
Activity calls are given as the source filed them.

How the values were obtained:
[1] = THP-1 cell cytotoxicity, cytotoxicity control, set 4 (AID 504911); type: functional; conditions: Mycobacterium tuberculosis
Cytochrome P450 3A4 = Cytochrome P450 3A4 (Homo sapiens, UniProt P08684); conditions: Potency;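 further: confirmatory qHTS run detecting inhibitors and substrates of CYP3A4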
[2] = molecular target: Aryl hydrocarbon receptor (Homo sapiens, UniProt P35869); conditions: Potency;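 further: confirmatory quantitative high-throughput screen measuring activation of the AhR signaling pathway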
Chain of Aryl hydrocarbon receptor (P35869 whole entry): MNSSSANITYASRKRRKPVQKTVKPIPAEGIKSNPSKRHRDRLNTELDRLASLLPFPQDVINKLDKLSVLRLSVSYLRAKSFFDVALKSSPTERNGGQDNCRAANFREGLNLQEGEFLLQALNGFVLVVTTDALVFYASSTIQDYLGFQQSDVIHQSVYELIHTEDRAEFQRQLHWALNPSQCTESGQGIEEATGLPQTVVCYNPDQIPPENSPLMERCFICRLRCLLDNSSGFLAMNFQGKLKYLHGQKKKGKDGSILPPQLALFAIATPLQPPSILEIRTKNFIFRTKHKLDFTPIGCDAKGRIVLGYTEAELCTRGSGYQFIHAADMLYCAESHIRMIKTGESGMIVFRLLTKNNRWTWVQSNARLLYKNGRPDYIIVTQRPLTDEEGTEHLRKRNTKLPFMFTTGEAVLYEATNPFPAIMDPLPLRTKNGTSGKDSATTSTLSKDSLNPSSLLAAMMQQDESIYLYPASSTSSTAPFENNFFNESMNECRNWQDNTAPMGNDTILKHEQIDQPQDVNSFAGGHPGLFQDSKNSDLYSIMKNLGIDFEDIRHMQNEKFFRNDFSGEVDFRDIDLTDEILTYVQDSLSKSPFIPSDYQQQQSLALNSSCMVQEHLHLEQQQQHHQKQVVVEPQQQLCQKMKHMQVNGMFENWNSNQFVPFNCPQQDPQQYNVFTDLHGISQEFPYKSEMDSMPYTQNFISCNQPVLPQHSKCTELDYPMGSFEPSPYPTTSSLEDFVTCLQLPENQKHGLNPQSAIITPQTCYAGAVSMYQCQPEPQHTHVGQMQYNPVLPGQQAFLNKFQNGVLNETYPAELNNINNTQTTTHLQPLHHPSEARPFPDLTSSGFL

Genome polyprotein = Genome polyprotein (dengue virus type 2, UniProt P29990); test: flavivirus cap methylation enzyme inhibition – biochemical, confirmation dose response, primary screen (AID 588689); type: functional
Chain of Genome polyprotein (P29990 2492-3391 limits assumed): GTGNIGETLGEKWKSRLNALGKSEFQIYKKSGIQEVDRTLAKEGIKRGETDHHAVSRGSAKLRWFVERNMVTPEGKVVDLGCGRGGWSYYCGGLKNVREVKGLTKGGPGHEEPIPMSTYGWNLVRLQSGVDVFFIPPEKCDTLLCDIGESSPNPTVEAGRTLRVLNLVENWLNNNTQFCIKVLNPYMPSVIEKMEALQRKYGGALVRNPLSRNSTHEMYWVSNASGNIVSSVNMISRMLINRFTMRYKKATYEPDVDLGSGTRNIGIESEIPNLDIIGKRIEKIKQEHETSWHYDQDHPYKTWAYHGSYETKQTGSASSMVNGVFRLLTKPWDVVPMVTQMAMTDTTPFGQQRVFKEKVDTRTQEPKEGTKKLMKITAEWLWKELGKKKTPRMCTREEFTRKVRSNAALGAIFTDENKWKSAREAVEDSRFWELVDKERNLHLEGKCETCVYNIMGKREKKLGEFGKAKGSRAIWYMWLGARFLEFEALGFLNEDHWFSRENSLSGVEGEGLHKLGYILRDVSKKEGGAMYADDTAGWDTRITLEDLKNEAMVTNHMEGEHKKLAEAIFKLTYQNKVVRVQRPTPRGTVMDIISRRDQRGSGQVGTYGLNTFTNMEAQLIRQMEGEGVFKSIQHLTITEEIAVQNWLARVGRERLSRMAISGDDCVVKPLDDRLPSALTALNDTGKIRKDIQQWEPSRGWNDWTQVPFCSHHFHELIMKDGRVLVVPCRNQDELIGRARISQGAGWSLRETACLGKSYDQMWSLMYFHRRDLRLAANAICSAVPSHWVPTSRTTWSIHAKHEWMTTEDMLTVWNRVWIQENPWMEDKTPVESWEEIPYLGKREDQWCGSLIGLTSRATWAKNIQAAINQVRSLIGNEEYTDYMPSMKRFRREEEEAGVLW

[3] = molecular target: Mitochondrial peptide methionine sulfoxide reductase (Bos taurus, UniProt P54149); test: Absorbance-based biochemical high throughput dose response assay for activators of Methionine sulfoxide reductase A (MsrA).; type: functional
Chain of Mitochondrial peptide methionine sulfoxide reductase (P54149 whole entry, the tested form may be a part): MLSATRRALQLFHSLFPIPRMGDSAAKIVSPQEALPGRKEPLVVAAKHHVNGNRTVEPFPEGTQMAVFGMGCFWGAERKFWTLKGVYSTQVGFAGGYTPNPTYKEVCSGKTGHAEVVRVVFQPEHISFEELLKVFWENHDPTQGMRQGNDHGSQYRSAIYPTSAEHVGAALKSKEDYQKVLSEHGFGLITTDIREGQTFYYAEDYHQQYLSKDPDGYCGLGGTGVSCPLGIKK

[4] = molecular target: T1, Polyadenylate-binding protein 1 (Homo sapiens, UniProt P11940); test: MLLE domain peptide-binding blockers, IC50 – biochemical, fluorescence polarization, FITC-PAM2 peptide, dose response (AID 602259); type: functional; conditions: read-out: IC50_Mean
T1 sequence (P11940 whole entry, the tested form may be a part): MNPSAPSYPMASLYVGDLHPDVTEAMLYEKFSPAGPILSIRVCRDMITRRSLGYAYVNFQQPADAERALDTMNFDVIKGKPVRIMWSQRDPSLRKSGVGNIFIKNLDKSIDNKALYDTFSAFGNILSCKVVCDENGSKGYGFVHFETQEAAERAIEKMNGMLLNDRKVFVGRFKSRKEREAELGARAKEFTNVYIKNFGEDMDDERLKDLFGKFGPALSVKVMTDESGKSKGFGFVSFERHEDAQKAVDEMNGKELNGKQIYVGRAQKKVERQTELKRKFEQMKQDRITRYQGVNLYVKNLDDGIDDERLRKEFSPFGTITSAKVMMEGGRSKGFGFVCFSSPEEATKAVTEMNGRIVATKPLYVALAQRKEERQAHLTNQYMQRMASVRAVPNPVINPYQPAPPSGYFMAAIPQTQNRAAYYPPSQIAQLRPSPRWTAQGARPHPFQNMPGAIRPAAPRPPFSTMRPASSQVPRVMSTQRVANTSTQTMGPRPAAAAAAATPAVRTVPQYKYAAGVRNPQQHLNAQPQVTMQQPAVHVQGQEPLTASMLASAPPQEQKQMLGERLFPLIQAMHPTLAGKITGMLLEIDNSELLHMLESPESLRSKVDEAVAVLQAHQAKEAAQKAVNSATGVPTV

[5] = molecular target: T1, Polyadenylate-binding protein 1; test: MLLE binding blockers, Cy5 peptide tracer – biochemical, fluorescence polarization, Cy5-PAM2 peptide, secondary, miRNA deadenylation inhibitor project, dose response (AID 602260); type: functional; conditions: read-out: IC50_Mean
[6] = cAMP pathway inhibition in counterscreen cell line – TR-FRET cAMP detection, counter-screen for MC4R biased antagonist project, dose response (AID 602305); type: functional, cell-based;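 further: U2OS cells stimulated with forskolin near its EC80 as the cAMP inducer; potency is for inhibition of forskolin-stimulated cAMP signaling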
Melanocortin receptor 4 = Melanocortin receptor 4 (Homo sapiens, UniProt P32245); test: inhibitors of MC4R cAMP signaling – cell-based, TR-FRET, biased antagonists, dose response (AID 602298); type: functional;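 further: antagonist potency against agonist-stimulated cAMP production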
Chain of Melanocortin receptor 4 (P32245 whole entry): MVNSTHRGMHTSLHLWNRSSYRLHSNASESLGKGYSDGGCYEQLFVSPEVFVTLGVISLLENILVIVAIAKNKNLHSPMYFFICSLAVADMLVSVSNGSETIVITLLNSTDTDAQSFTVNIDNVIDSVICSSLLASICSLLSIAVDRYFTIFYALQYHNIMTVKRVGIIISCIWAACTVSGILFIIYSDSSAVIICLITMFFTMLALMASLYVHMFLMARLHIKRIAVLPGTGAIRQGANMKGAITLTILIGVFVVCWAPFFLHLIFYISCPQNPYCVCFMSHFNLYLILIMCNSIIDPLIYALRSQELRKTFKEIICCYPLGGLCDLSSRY

Vero = test: cells; type: functional; conditions: Chlorocebus sabaeus
[7] = molecular target: T2, Corticotropin-releasing factor receptor 2/Corticotropin-releasing factor-binding protein (Homo sapiens, UniProt P24387+Q13324); test: activators of CRF receptor 2 with binding protein – uHTS hits, confirmation (AID 602473); type: functional; conditions: read-out: EC50_Mean
T2 sequence (Q13324 whole entry): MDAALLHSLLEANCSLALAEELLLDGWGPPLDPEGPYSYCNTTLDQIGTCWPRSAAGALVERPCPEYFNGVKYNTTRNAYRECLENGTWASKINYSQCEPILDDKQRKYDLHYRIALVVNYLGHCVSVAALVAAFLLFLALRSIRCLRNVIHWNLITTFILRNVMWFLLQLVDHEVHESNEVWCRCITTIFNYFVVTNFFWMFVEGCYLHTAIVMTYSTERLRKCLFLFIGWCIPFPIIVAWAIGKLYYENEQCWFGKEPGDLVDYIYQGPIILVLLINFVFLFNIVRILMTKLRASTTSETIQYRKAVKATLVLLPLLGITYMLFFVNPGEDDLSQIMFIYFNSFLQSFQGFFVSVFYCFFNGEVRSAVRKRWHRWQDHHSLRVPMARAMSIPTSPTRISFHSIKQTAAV
T2 sequence (P24387 whole entry): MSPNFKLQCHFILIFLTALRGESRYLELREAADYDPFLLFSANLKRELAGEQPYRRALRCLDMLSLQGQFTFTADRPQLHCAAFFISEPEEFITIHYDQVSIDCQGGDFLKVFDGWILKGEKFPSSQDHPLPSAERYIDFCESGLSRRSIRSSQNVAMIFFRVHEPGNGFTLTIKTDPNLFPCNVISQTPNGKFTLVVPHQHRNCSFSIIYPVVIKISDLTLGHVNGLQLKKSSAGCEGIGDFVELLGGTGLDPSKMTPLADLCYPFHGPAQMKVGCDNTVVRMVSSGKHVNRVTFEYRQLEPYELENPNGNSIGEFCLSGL

[8] = blockers of CRF-binding protein–CRF-R2 complex – cell-based, uHTS hits, 384-well, dose response (AID 651639); type: functional, Homo sapiens; conditions: read-out: IC50_Mean
[9] = molecular target: T2, Corticotropin-releasing factor receptor 2/Corticotropin-releasing factor-binding protein; test: Dose Response confirmation of uHTS hits for small molecule antagonists of the CRF-binding protein and CRF-R2 receptor complex.; type: functional; conditions: read-out: IC50_Mean
[10] = molecular target: Dual specificity tyrosine-phosphorylation-regulated kinase 1A (Rattus norvegicus, UniProt Q63470); type: biochemical, Homo sapiens
[11] = molecular target: T3, Tyrosine-protein phosphatase non-receptor type 22 (Homo sapiens, UniProt Q9Y2R2); test: PTPN22 enzyme inhibitors – biochemical, fluorescence, LYP catalytic domain, selectivity assay for LMPTP inhibitor project, dose response (AID 652006); type: functional; conditions: read-out: IC50_Mean
T3 sequence (Q9Y2R2 whole entry): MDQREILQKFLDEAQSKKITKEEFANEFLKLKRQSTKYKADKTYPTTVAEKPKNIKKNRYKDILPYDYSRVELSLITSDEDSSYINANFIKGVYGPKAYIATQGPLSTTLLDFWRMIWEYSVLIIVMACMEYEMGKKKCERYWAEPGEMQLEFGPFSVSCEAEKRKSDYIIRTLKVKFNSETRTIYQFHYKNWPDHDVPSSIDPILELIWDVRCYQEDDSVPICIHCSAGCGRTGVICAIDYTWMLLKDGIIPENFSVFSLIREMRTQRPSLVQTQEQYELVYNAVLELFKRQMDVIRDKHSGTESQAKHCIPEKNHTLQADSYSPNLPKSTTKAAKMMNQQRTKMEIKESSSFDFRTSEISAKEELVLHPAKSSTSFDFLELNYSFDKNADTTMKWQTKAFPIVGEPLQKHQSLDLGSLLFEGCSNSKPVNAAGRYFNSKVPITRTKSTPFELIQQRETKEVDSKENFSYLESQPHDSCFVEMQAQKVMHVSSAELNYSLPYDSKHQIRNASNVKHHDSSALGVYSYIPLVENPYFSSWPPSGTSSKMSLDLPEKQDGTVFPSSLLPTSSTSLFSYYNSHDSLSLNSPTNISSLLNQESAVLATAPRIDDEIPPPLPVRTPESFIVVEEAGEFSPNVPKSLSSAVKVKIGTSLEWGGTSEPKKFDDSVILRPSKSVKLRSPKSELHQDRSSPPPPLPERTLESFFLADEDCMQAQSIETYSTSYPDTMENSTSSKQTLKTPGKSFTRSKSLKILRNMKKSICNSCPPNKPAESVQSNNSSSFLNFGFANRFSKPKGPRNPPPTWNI

[12] = molecular target: T4, Short transient receptor potential channel 4 (Mus musculus, UniProt Q9QUQ5); test: block of DAMGO-driven TRPC4 calcium entry – cell-based, HEK293 TRPC4/mu-opioid, Fluo-4 calcium, dose response (AID 434942); type: functional;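 further: potency of inhibitors blocking the TRPC4 calcium response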
T4 sequence (Q9QUQ5 whole entry): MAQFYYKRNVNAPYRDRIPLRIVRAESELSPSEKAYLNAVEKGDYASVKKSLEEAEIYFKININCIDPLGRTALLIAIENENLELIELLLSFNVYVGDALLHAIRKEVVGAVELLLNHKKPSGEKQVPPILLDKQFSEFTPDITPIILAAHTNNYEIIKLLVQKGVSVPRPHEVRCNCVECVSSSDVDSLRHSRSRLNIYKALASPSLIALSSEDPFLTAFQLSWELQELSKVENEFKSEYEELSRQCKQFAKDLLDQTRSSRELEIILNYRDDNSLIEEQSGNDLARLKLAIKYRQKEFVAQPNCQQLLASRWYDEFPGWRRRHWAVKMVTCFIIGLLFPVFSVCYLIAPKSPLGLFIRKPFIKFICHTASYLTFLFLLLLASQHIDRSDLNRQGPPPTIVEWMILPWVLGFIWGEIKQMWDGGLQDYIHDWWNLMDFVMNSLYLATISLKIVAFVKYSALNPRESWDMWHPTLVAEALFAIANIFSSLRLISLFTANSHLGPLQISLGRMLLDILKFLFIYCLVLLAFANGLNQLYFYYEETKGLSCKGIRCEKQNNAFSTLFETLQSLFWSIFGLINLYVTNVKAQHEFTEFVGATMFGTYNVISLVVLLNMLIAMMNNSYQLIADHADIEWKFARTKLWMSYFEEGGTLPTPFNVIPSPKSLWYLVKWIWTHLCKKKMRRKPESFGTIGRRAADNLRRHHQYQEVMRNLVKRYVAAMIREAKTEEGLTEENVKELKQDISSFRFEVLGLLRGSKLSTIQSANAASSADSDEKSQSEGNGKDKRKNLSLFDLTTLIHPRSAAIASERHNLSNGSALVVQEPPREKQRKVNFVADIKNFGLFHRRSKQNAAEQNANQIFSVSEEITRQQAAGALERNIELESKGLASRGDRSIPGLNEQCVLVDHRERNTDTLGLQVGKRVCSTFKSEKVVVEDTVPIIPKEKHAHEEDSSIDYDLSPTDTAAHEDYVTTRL

[13] = molecular target: T5, Low molecular weight phosphotyrosine protein phosphatase (Homo sapiens, UniProt P24666); type: functional; conditions: read-out: IC50_Mean
T5 sequence (P24666 whole entry): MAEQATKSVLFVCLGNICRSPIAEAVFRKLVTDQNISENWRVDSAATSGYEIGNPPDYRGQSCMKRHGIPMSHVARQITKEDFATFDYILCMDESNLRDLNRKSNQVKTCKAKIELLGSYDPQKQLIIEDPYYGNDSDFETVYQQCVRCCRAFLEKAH

[14] = molecular target: T5, Low molecular weight phosphotyrosine protein phosphatase; type: functional; conditions: read-out: IC50_Mean; remark: listed apart in the source
[15] = molecular target: T6, Rac GTPase-activating protein 1 (Homo sapiens, UniProt Q9H0H5); test: blockers of MgcRacGAP-driven Rac1 GTP hydrolysis – biochemical, ADP Hunter fluorescence, primary and confirmatory, confirmation (AID 624330); type: functional
T6 sequence (Q9H0H5 whole entry): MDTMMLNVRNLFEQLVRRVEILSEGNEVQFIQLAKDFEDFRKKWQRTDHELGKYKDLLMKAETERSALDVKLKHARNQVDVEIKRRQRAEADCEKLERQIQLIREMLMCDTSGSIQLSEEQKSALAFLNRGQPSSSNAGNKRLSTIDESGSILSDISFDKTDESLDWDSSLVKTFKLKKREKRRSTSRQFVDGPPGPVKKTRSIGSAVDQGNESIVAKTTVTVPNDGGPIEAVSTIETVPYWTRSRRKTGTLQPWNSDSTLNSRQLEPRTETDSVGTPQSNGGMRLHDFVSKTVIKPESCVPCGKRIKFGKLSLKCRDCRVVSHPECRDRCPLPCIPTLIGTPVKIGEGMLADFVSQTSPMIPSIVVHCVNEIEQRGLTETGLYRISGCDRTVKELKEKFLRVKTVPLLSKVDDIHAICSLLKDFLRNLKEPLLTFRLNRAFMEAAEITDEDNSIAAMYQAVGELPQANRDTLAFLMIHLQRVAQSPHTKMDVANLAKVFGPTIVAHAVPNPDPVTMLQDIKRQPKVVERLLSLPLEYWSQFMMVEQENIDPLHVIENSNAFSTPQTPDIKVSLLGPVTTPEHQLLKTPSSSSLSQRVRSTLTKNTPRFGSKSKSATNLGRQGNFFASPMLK

[16] = molecular target: DNA dC->dU-editing enzyme APOBEC-3A (Homo sapiens, UniProt P31941); test: SAR analysis of small molecule inhibitors of APOBEC3A DNA Deaminase via a fluorescence-based single-stranded DNA deaminase assay.; type: functional; conditions: read-out: IC50_Mean
Chain of DNA dC->dU-editing enzyme APOBEC-3A (P31941 whole entry): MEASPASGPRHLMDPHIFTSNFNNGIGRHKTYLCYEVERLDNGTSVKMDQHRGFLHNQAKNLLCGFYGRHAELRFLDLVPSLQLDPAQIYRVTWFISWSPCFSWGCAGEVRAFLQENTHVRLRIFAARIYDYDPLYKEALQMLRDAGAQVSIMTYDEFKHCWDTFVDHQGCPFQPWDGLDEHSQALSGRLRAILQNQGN

Coagulation factor XII = molecular target: T7, Coagulation factor XII (Homo sapiens, UniProt P00748); type: functional;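 further: activated factor XIIa alpha cleaving a fluorogenic AMC peptide substrate; inhibitor potency from loss of enzyme activity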
T7 sequence (P00748 whole entry): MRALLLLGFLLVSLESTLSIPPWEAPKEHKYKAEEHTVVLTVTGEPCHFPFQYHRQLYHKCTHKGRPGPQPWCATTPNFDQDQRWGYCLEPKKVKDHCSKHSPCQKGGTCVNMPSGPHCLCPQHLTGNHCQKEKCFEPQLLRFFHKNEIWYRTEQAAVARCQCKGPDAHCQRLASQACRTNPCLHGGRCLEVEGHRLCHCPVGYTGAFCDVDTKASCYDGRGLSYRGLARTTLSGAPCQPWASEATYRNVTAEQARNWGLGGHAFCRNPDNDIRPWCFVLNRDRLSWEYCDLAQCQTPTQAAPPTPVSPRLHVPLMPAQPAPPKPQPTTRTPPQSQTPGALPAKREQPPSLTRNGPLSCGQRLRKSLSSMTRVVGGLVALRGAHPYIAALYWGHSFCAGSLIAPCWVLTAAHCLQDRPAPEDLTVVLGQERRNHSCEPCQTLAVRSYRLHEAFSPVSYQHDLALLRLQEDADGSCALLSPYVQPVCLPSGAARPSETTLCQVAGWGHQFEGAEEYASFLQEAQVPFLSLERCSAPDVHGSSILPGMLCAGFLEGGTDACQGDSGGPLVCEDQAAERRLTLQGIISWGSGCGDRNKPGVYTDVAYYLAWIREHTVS

[17] = molecular target: DNA dC->dU-editing enzyme APOBEC-3G (Homo sapiens, UniProt Q9HC16); test: inhibition of APOBEC3G ssDNA deamination – biochemical, fluorescence, single-stranded DNA substrate, SAR follow-up (AID 602136); type: functional; conditions: read-out: IC50_Mean
Chain of DNA dC->dU-editing enzyme APOBEC-3G (Q9HC16 whole entry): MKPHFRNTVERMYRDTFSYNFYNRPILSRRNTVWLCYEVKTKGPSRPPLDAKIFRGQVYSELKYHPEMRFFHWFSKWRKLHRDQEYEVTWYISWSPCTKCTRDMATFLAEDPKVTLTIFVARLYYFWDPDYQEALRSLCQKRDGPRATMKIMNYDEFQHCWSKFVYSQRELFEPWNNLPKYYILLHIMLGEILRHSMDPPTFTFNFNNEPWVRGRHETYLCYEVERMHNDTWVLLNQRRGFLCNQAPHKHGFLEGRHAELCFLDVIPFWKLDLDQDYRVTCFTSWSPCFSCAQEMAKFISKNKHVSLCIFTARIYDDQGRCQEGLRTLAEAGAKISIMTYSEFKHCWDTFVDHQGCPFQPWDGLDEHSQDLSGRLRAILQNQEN

[18] = molecular target: T8, Probable nicotinate-nucleotide adenylyltransferase (Staphylococcus aureus (strain N315), UniProt P65502); type: functional, Staphylococcus aureus subsp. aureus N315;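 on IC50 Mean: confirmatory dose-response retesting of NadD inhibitor hits first found in an ultra-high-throughput screen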
T8 sequence (P65502 whole entry): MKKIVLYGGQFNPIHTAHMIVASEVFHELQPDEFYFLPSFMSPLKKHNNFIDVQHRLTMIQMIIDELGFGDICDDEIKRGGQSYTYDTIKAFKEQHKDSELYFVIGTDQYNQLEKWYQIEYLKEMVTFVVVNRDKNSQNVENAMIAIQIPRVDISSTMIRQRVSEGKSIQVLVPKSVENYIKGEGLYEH

[19] = molecular target: T8, Probable nicotinate-nucleotide adenylyltransferase; type: functional, Staphylococcus aureus subsp. aureus N315; conditions: read-out: IC50_Mean

Chain of Cytochrome P450 3A4 (P08684 whole entry): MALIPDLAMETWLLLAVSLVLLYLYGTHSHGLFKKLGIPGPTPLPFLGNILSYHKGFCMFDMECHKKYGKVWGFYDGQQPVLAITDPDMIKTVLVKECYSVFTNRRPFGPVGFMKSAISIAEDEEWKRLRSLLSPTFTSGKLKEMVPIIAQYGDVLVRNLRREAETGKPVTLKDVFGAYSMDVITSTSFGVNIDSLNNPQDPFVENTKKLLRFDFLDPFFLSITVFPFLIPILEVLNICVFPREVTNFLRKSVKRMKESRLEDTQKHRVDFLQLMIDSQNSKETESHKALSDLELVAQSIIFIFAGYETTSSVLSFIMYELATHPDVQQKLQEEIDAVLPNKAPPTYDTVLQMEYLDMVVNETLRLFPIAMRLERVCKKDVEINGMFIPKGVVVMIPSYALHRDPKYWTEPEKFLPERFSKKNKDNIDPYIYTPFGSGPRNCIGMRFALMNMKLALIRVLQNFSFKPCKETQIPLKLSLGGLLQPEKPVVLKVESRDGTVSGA

COc1cccc(NC(=O)CSc2nc3c(c(=O)[nH]2)CCC3)c1
CC50 [1]: > 100 µM (active)

COc1ccc2nc(N)sc2c1
AC50 (Cytochrome P450 3A4): 31.6 µM (inconclusive) | AC50 [2]: 44.7 µM (inconclusive)

O=C1c2ccccc2C(=O)c2c(/C=C/N3CCCCC3)ccnc21
IC50 (Genome polyprotein): 61.6 µM (active) | EC50 [3]: > 104 µM (inactive) | IC50 [4]: 50.2 µM (inactive) | IC50 [5]: > 66 µM (inactive)

COC(=O)C=C1CCC2C3CCC4=CC(=O)C(Br)CC4(C)C3C(=O)CC12C (centres undefined)
IC50 [6]: > 64.6 µM (inactive) | IC50 (Melanocortin receptor 4): > 64.6 µM (inactive) | CC50 (Vero): > 25 µM (active)

CC(=O)NC(Cc1ccc(C)cc1)C(=O)NC1CCN(c2ncccc2[N+](=O)[O-])CC1 (centres undefined)
EC50 [7]: > 53 µM (inactive) | IC50 [8]: 5.07 µM (active) | IC50 [9]: 2.09 µM (active)

Cc1cc(N2CCC(C)CC2)nc2cccc(O)c12
AC50 [10]: 14.3 µM (active) | IC50 [11]: 80 µM (inactive) | EC50 [12]: 0.335 µM (active) | IC50 [13]: 13.2 µM (active) | IC50 [14]: 9.87 µM (active)

O=C(CNCc1ccccn1)Nc1cc(C(F)(F)F)ccc1N1CCOCC1
IC50 [15]: 138 µM (active) | IC50 [16]: > 99 µM (inactive) | IC50 (Coagulation factor XII): > 50 µM (inactive) | IC50 [17]: > 99 µM (inactive)

Nc1[nH]c(C(=O)c2ccccc2)c(-c2ccccc2Br)c1C(=O)NCc1ccc(-c2ccccc2)cc1
IC50 [18]: 26.5 µM (active) | IC50 [19]: 65.9 µM (active)
